Assay results published in patent publication US20250177275A1, “ACTIVE AGENT MODULATING THE ACTIVITY OF AN ION CHANNEL FOR USE IN INHIBITION OF SKIN AGING” (Cutaneon - Skin & Hair Innovations GmbH, priority 2022, published 2025).
“Also recorded” adds a separate entry of the source.

What was measured:
Ki67 [1] = experiment: Ki67 immunofluorescence, quantitative immunohistomorphometry in ex vivo human skin organ culture; type: cell-based; conditions: 3 days
Method: (§1) Samples of human abdominal, breast, temporal, and occipital skin were obtained with written patient consent and under ethical approval from healthy adult human subjects during elective plastic surgery performed for cosmetic reasons. Full-thickness human skin samples were prepared as 4-6 mm punches, placed on filter paper, and cultured at the air-liquid interphase under serum-free conditions in William's E medium supplemented only with penicillin-streptomycin, insulin, hydrocortisone and L-glutamine, as described previously. […]
(§2) Images were then obtained with a digital microscope (Keyence). Quantitative immunohistomorphometric analysis was performed by assessing the relative fluorescent or color intensity in standardized reference areas with ImageJ (NIH; Bethesda, MD, USA). […] Two skin punch biopsies were analyzed per experimental group unless indicated otherwise. […]
For the detection of Ki67, formalin-fixed human skin frozen sections were blocked with PBS containing 10% normal goat serum (NGS) for 30 minutes at room temperature and then incubated with an anti-Ki67 antibody diluted 1:800 in PBS containing 2% NGS overnight at 4° C. […] Image acquisition and quantitative immunohistomorphometric analysis were performed similar to as described above.

Cytokeratin 15 [2] = experiment: Cytokeratin 15 immunofluorescence in normal human epidermal keratinocyte (NHEK) culture; type: cell-based; conditions: 24 hrs; for expression of Cytokeratin 15 in NHEKs: vs vehicle
Method: (§3) Primary adult normal human epidermal keratinocytes (NHEK) were cultured in serum-free Keratinocyte Growth Medium 2 (KGM2) up to passage 6 and were seeded on glass slides at a density of 15-20×10^3 cells/cm^2. The next day, the KGM2 culture medium was changed and supplemented with hereafter indicated compounds, their combination or ethanol as vehicle control.
(§4) For application of the active to the medium (systemic application), 2,5-dimethylpyrazine (DMP), a TRPM5 activator, the DMP stock was dissolved at 37° C. at a final concentration of 10, 12.5 or 100 nM in KGM2. For triphenylphosphine oxide (TPPO), a TRPM5 inhibitor, a stock was prepared in ethanol and dissolved at 37° C. at a final concentration of 50 μM in KGM2. After 24 hours, NHEKs were washed in PBS and then either fixed in 4% formaldehyde for 10 minutes are room temperature (immunofluorescence labeling) or lysed in Buffer RLT containing 1% β-mercaptoethanol (for quantitative RT-qPCR).
(§5) For the detection of Cytokeratin 15 in cell cultures, formalin-fixed NHEKs were permeabilized in PBS containing 0.05% Triton™ X-100 for 10 minutes, rinsed in PBS and then blocked in PBS containing 10% normal goat serum (NGS) for 20 minutes. Next, samples were incubated with an anti-Cytokeratin 15 diluted 1:100 in antibody diluent overnight at 4° C. After consecutive rinses with PBS, samples were incubated with Alexa fluorophore-conjugated secondary antibodies diluted 1:500 in antibody diluent containing 2% NGS for 45 minutes at room temperature. […]
(§6) For the analysis on NHEKs, images were then obtained with a digital microscope (Keyence). Quantitative immunohistomorphometric analysis was performed by assessing the number of positive cells or the relative fluorescence intensity in standardized reference areas with ImageJ (NIH; Bethesda, MD, USA). Briefly, for the evaluation of Cytokeratin 15, the relative target-specific intensity was measured in 14-20 cells per microscopic field. For each parameter 14-20 microscopic fields were evaluated.

Sirtuin-1 = Sirtuin-1 immunohistochemistry, quantitative immunohistomorphometry in ex vivo human skin organ culture; type: cell-based; conditions: systemic (medium) DMP 12.5 μM, 3 days, vs vehicle
Ki67 [3] = experiment: Ki67 positive cell count (proliferation) in NHEK culture; type: cell-based, human; conditions: DMP 100 nM, 24 hrs, vs vehicle
Method: as §3
as §4, with “For triphenylphosphine oxide (TPPO), a TRPM5 inhibitor, a stock was prepared in ethanol and dissolved at 37° C. at a final concentration of 50 μM in KGM2.” left out, “RT-qPCR). […]” for “RT-qPCR).”
as §6, with “Ki67,” for “Cytokeratin 15,”, “number of cells with positive nuclear staining per field” for “relative target-specific intensity”, “counted and normalized to the total number of DAPI positive nuclei.” for “measured in 14-20 cells per microscopic field.”

Collagen 17A [4] = experiment: Collagen 17A immunofluorescence in normal human epidermal keratinocyte (NHEK) culture; type: cell-based; conditions: 24 hrs; for expression of Collagen 17A in NHEKs: vs vehicle
Method: as §3, §4
as §5, with “Collagen 17A” for “Cytokeratin 15”, “anti-Collagen 17A” for “anti-Cytokeratin 15”
as §6, with “Collagen 17A,” for “Cytokeratin 15,”

PGC1α = PGC1α immunofluorescence, quantitative immunohistomorphometry in ex vivo human skin organ culture; type: cell-based; conditions: systemic (medium) DMP 12.5 μM, 3 days, vs vehicle
Lamin B1 = Lamin B1 immunofluorescence, quantitative immunohistomorphometry in ex vivo human skin organ culture; type: cell-based; conditions: systemic (medium) DMP 12.5 μM, 3 days, vs vehicle
Cytokeratin 15 [5] = experiment: Cytokeratin 15 immunofluorescence, quantitative immunohistomorphometry in ex vivo human skin organ culture; type: cell-based; conditions: topical DMP 12.5 mM, 3 days, vs vehicle
Method: as §1, §2
After consecutive rinses with PBS, samples were incubated with Alexa fluorophore-conjugated secondary antibodies diluted 1:500 in antibody diluent containing 2% normal goat serum for 45 minutes at room temperature. […] Image acquisition and quantitative immunohistomorphometric analysis were performed similar to as described above.

KRT15 = KRT15 mRNA by RT-qPCR in NHEK culture; type: cell-based, human; conditions: DMP 100 nM, 24 hrs, normalized to GAPDH, vs vehicle
Method: as §3
as §4, with “For triphenylphosphine oxide (TPPO), a TRPM5 inhibitor, a stock was prepared in ethanol and dissolved at 37° C. at a final concentration of 50 μM in KGM2.” left out
(§7) For the assessment of Collagen 17A and Cytokeratin 15 specific mRNA transcripts (COL17A, KRT15) by quantitative RT-qPCR technology, RNA was isolated from cells lysed in Buffer RLT containing 1% β-mercaptoethanol using the RNeasy Mini Kit according to the manufacturer's instructions. RNA purity and concentrations were determined using the BioDrop. […] Real-time quantitative polymerase chain reaction (qRT-PCR) was run in triplicate using TaqMan™ Fast Advanced Master Mix and TaqMan Gene Expression Assays on the QuantStudio. […]

COL17A1 = COL17A1 mRNA by RT-qPCR in NHEK culture; type: cell-based, human; conditions: DMP 10 nM, 24 hrs, normalized to GAPDH, vs vehicle
Method: as §3
as §4, with “For triphenylphosphine oxide (TPPO), a TRPM5 inhibitor, a stock was prepared in ethanol and dissolved at 37° C. at a final concentration of 50 μM in KGM2.” left out
as §7

Collagen 17A [6] = experiment: Collagen 17A immunofluorescence, quantitative immunohistomorphometry in ex vivo human skin organ culture; type: cell-based; conditions: 3 days
Method: Samples of human abdominal, breast, temporal, and occipital skin were obtained with written patient consent and under ethical approval from healthy adult human subjects during elective plastic surgery performed for cosmetic reasons. Full-thickness human skin samples were prepared as 4-6 mm punches, placed on filter paper, and cultured at the air-liquid interphase under serum-free conditions in William's E medium supplemented only with penicillin-streptomycin, insulin, hydrocortisone and L-glutamine, as described previously.
For modelling the application of the actives directly to the skin surface (topical application) 2,5-dimethylpyrazine (DMP), a TRPM5 activator was dissolved at 37° C. at a final concentration of 12.5 mM in a 50% v/v solution of Isopropanol in PBS containing 1 g/mL of Polyethylene glycol 6000. […]
as §2

[7] = test system: Phospho-Histone H3 Ser10 (pH3S10); experiment: Phospho-Histone H3 Ser10 (pH3S10) positive cell count in NHEK culture; type: cell-based, human; conditions: DMP 100 nM, 24 hrs, vs vehicle
Method: as §3
as §4, with “For triphenylphosphine oxide (TPPO), a TRPM5 inhibitor, a stock was prepared in ethanol and dissolved at 37° C. at a final concentration of 50 μM in KGM2.” left out, “RT-qPCR). […]” for “RT-qPCR).”
as §6, with “pH3S10,” for “Cytokeratin 15,”, “number of cells with positive nuclear staining per field” for “relative target-specific intensity”, “counted and normalized to the total number of DAPI positive nuclei.” for “measured in 14-20 cells per microscopic field.”

[8] = topical DMP 12.5 mM, vs vehicle
[9] = topical TPPO 1.5 mM with topical DMP 12.5 mM

Compound | expression of Ki67 in the epidermis (Ki67 [1]; [8]) | expression of Cytokeratin 15 in NHEKs (Cytokeratin 15 [2]; DMP 12.5 nM) | expression of Cytokeratin 15 in NHEKs (Cytokeratin 15 [2]; DMP 100 nM) | expression of Sirtuin 1 in the epidermis (Sirtuin-1) | number of Ki67 positive (proliferating) NHEKs (Ki67 [3]) | expression of Collagen 17A in NHEKs (Collagen 17A [4]; DMP 12.5 nM) | expression of Collagen 17A in NHEKs (Collagen 17A [4]; DMP 100 nM) | expression of PGC1α in the epidermis (PGC1α) | expression of Lamin B1 in the epidermis (Lamin B1) | expression of Cytokeratin 15 in the basal layers of the epidermis (Cytokeratin 15 [5]) | gene expression of KRT15 (RT-qPCR) (KRT15) | gene expression of COL17A1 (RT-qPCR) (COL17A1) | expression of Collagen 17A in the basal layers of the epidermis (Collagen 17A [6]; [8]) | number of pH3S10 positive (dividing and proliferating) NHEKs [7] | effect on DMP-induced upregulation of Ki67 expression (Ki67 [1]; [9]) | effect on DMP-induced upregulation of Cytokeratin 15 expression (Cytokeratin 15 [2]; TPPO 50 μM with DMP 100 nM) | effect on DMP-induced upregulation of Collagen 17A expression (Collagen 17A [4]; TPPO 50 μM with DMP 100 nM) | effect on DMP-induced upregulation of Collagen 17A expression (Collagen 17A [6]; [9])
Cc1cnc(C)cn1 [DMP, 2,5-dimethylpyrazine] | upregulate | markedly increases | upregulate | markedly increases | markedly increases | markedly increases | upregulate | markedly increases | markedly increases | markedly increases | markedly increases | markedly increases | upregulate; also recorded: markedly increases | markedly increases |  |  |  | 
O=P(c1ccccc1)(c1ccccc1)c1ccccc1 [TPPO, triphenylphosphine oxide, reference compound] |  |  |  |  |  |  |  |  |  |  |  |  |  |  | prevented the effect | prevented the effect | prevented the effect | prevented the effect
